For one data set, the system named is A. baumannii ATCC 17978. The experiment in a line: microbe, parasite or virus in culture. On the procedure: (§1) Antimicrobial susceptibility testing of the 20 synthesized peptides against 17 bacterial strains of clinical relevance in the ESKAPEE panel was conducted using minimum inhibitory concentration (MIC) assays following the broth microdilution method outlined by Parker et al.[91]. The ESKAPEE panel is comprised of fourteen American Type Culture Collection (ATCC) strains and three Multidrug Resistant Organism Repository and Surveillance Network (MRSN) bacterial strains. These strains represent at least one drug-susceptible strain and one drug-resistant strain for each bacterium to assess drug efficacy across various resistance mechanisms. This panel is comprised of the following bacterial species and strains: E. faecium (ATCC 19434, ATCC 49224), S. aureus (ATCC 25923, ATCC 43300), K. pneumoniae (ATCC 700603, ATCC 13883, MRSN 1320), A. baumannii (ATCC 17978, ATCC 19606, MRSN 959), P. aeruginosa (ATCC 15692, ATCC 27853, MRSN 5519), E. cloacae (ATCC 13047, ATCC 35549), and E. coli (ATCC 35218, ATCC 43888). Bacteria were grown in cation-adjusted Mueller-Hinton broth (CAMHB) to achieve a final inoculum of 1 × 10⁵ CFU/mL. CAMHB is selected for its batch-to-batch reproducibility, low levels of antimicrobial inhibitors, and ability to support the growth of most bacterial pathogens.
(§2) Briefly, lyophilized peptides were dissolved in 0.2% TFA + 0.4% BSA in water to 2.56 mg/mL, ultrasonicated for 20 min, diluted 10-fold into CAMHB, and then serially diluted 2-fold in 0.02% TFA + 0.04% BSA in CAMHB and assayed at a concentration of 0.25 to 128 μg/mL. Assays were set up using the Tecan Freedom EVO liquid handling robot and software (Tecan, Switzerland) with 50 μL of bacterial inoculum and 50 μL of peptide transferred into round-bottom 96-well microtiter plates. Each plate assay was performed in duplicate and incubated at 37 °C for 20 h without agitation. Bacterial growth was assessed using the BIOMIC V3 Image Analysis system (Giles Scientific, USA) and the MIC values were determined visually according to the Clinical and Laboratory Standards Institute (CLSI) guidelines.

Another data set relates to A. baumannii ATCC 19606. The data set can be described thus: microbe, parasite or virus in culture. As to the method:
as §1, §2

For the next data set, the system named is E. cloacae ATCC 13047. The experiment in a line: microbe, parasite or virus in culture. As to the method: as §1, §2
The subject of another data set is E. cloacae ATCC 35549. The data set can be described thus: microbe, parasite or virus in culture. On the procedure: as §1, §2
The subject of another data set is E. coli ATCC 35218. The data set can be described thus: microbe, parasite or virus in culture. To be noted: E. coli 35218. On the procedure:
as §1, §2

The next data set concerns E. coli ATCC 43888. The experiment in a line: microbe, parasite or virus in culture. As to the method: as §1, §2
The next data set relates to E. faecium ATCC 19434. The experiment in a line: microbe, parasite or virus in culture. As to the method: as §1, §2
The subject of a further data set is E. faecium ATCC 49224. The data set can be described thus: microbe, parasite or virus in culture. On the procedure: as §1, §2
A further data set deals with K. pneumoniae ATCC 13883. The data set can be described thus: microbe, parasite or virus in culture. On the procedure:
as §1, §2

The subject of data set [1] is K. pneumoniae ATCC 700603. The data set can be described thus: microbe, parasite or virus in culture. The note with it: K. pneumoniae 700603. As to the method:
as §1, §2

A further data set concerns P. aeruginosa ATCC 27853. The data set can be described thus: microbe, parasite or virus in culture. On the procedure:
as §1, §2

The next data set deals with P. aeruginosa MRSN 5519. The data set can be described thus: microbe, parasite or virus in culture. As to the method:
as §1, §2

The next data set relates to S. aureus ATCC 25923. The experiment in a line: microbe, parasite or virus in culture. On the procedure:
as §1, §2

Another data set deals with S. aureus ATCC 43300. The data set can be described thus: microbe, parasite or virus in culture. To be noted: S. aureus 43300. On the procedure: as §1, §2
Another data set deals with P. aeruginosa PA01. The experiment in a line: microbe, parasite or virus in culture. The class given is cell-based. The note with it: P. aeruginosa 15692 (PAO1); Week 2 (12/14/2023). On the procedure: as §1, §2
In another data set the test system is P. aeruginosa PA01 (Si). The data set can be described thus: microbe, parasite or virus in culture. The class given is cell-based. From the text:
Supplement 41522_2025_837_MOESM13_ESM.xlsx, sheet "Table_S13_ESKAPEE-MIC" | column: Bacterial MIC (µg/mL)

Details of data set [2]: method as in Biomatik (vendor). The note with it: 1.0 mg peptide in 1.0 ml solvent; peptides synthesized by Biomatik; ref Biomatik (vendor); cited from earlier work.
Data set [3] has as its system Batrachochytrium dendrobatidis Bd-GPL strain JEL404. To be noted: slope of growth, positive = inhibition, negative = no inhibition. As to the method: Bd-peptide challenge assays were conducted with the crude peptides extracted from the salamander skin secretions and with the 20 synthesized peptides. We followed methods by Pereria et al.[49] to conduct assays with the crude peptides using Bd-GPL strain JEL404 at 1 × 10^6 zoospores/mL. Briefly, skin peptide samples were pooled together based on species-site-injection (Table 1). Skin peptides samples were serially diluted 2-fold in MilliQ (Ultrapure Type 1) water and assayed at a concentration of 2.35–75 μg/mL based on starting peptide concentration available. For synthesized peptides, we conducted assays from 15.6 to 500 μg/ml. In both assays, we quantified percent inhibition of each well using slope of growth[90] in which positive values indicate inhibition and negative values indicate no inhibition.

Read-outs that look alike come from different tables or passages of the source. Ends that are not written are not given here.

With RVPPGFSPFR [PrAd-Eb28], the “Bacterial MIC” value is above 128.000 µg/mL in the data set with A. baumannii ATCC 17978 (ATCC 17978, 20 h); above 128.000 µg/mL in the data set with A. baumannii ATCC 19606 (ATCC 19606, 20 h); above 128.000 µg/mL in the data set with E. cloacae ATCC 13047 (ATCC 13047, 20 h); above 128.000 µg/mL in the data set on E. cloacae ATCC 35549 (ATCC 35549, 20 h); above 128.000 µg/mL with E. coli ATCC 35218 (Week 2 (12/14/2023)); above 128.000 µg/mL in the data set with E. coli ATCC 43888 (ATCC 43888, 20 h). Also, the “Bacterial MIC” value in the data set on E. faecium ATCC 19434 (ATCC 19434, 20 h) is recorded as above 128.000 µg/mL; with E. faecium ATCC 49224 (ATCC 49224, 20 h) it was above 128.000 µg/mL; with K. pneumoniae ATCC 13883 (ATCC 13883, 20 h), above 128.000 µg/mL; in data set [1] (Week 2 (12/14/2023)), above 128.000 µg/mL; in the data set with P. aeruginosa ATCC 27853 (ATCC 27853, 20 h), above 128.000 µg/mL; in the data set with P. aeruginosa MRSN 5519 (MRSN 5519, 20 h), above 128.000 µg/mL. Further, the “Bacterial MIC” value is listed as above 128.000 µg/mL with S. aureus ATCC 25923 (ATCC 25923, 20 h); above 128.000 µg/mL in the data set on S. aureus ATCC 43300 (Week 2 (12/14/2023)); above 128.000 µg/mL with P. aeruginosa PA01; above 128.000 µg/mL in the data set on P. aeruginosa PA01 (Si) (Si); above 128.000 µg/mL in the data set with K. pneumoniae 4640 (4640, 20 h); above 128.000 µg/mL in the data set with A. baumannii 5075 (Week 2 (12/14/2023)). In data set [2], the “Suggest solvent (solubility)” value was 1.0mg peptide soluble in 1.0ml H2O.
For KGPRPPGFSPFR [PrMb-Eb7], the “Bd inhibition score (percent inhibition), mean” value in [3] (synthesized peptide 15.625 μg/mL) is -125.322%; in [3] (synthesized peptide 31.25 μg/mL), -116.924%; in [3] (synthesized peptide 62.5 μg/mL), -107.962%; in data set [3] (synthesized peptide 125 μg/mL) it was -145.651%; in data set [3] (synthesized peptide 250 μg/mL), -143.314%; in [3] (synthesized peptide 500 μg/mL), -136.81%. For the same sequence, the “Bacterial MIC” value with A. baumannii ATCC 17978 (A. baumannii 17978, Week 1 (12/6/2023)) was above 128.000 µg/mL; with A. baumannii ATCC 19606 (A. baumannii 19606, Week 1 (12/6/2023)), above 128.000 µg/mL; with E. cloacae ATCC 13047 (E. cloacae 13047, Week 1 (12/6/2023)) it was above 128.000 µg/mL; in the data set with E. cloacae ATCC 35549 (E. cloacae 35549, Week 1 (12/6/2023)) it was above 128.000 µg/mL; in the data set with E. coli ATCC 35218 (Week 1 (12/6/2023)), above 128.000 µg/mL; in the data set with E. coli ATCC 43888 (E. coli 43888, Week 1 (12/6/2023)), above 128.000 µg/mL. Besides, the “Bacterial MIC” value was above 128.000 µg/mL in the data set on E. faecium ATCC 19434 (E. faecium 19434, Week 1 (12/6/2023)); above 128.000 µg/mL with E. faecium ATCC 49224 (E. faecium 49224, Week 1 (12/6/2023)); above 128.000 µg/mL in the data set on K. pneumoniae ATCC 13883 (K. pneumoniae 13883, Week 1 (12/6/2023)); above 128.000 µg/mL in data set [1] (Week 1 (12/6/2023)); above 128.000 µg/mL with P. aeruginosa ATCC 27853 (P. aeruginosa 27853, Week 1 (12/6/2023)); above 128.000 µg/mL in the data set on P. aeruginosa MRSN 5519 (P. aeruginosa 5519, Week 1 (12/6/2023)). In addition, the “Bacterial MIC” value is given as above 128.000 µg/mL with S. aureus ATCC 25923 (S. aureus 25923, Week 1 (12/6/2023)); above 128.000 µg/mL in the data set on S. aureus ATCC 43300 (Week 1 (12/6/2023)); above 128.000 µg/mL with P. aeruginosa PA01 (Si) (P. aeruginosa PA01 (Si), not typical ESKAPEE strain, Week 1 (12/6/2023)); above 128.000 µg/mL in the data set with K. pneumoniae 4640 (K. pneumoniae 4640, Week 1 (12/6/2023)); above 128.000 µg/mL with A. baumannii 5075 (Week 1 (12/6/2023)). The “Suggest solvent (solubility)” value in [2] was 1.0mg peptide soluble in 1.0ml H2O.
